From ChEMBL document CHEMBL4431322, “Timosaponin AIII inhibits migration and invasion of A549 human non-small-cell lung cancer cells via attenuations of MMP-2 and MMP-9 by inhibitions of ERK1/2, Src/FAK and β-catenin signaling pathways” (2016)
Activity calls are given as the source filed them. The rule behind the calls is not given here.

Legend:
A549 [1] = assay: Induction of apoptosis in human A549 cells assessed as early apoptotic cells at 9 uM after 24 hrs by flow cytometry (reference value: 15.45%); assay type: functional
A549 [2] = assay: Induction of apoptosis in human A549 cells assessed as late apoptotic cells at 9 uM after 24 hrs by flow cytometry (reference value: 7.9%); assay type: functional
A549 [3] = assay: Cytotoxicity against human A549 cells assessed as cell survival up to 10 uM incubated for 24 hrs by CCK8 assay; assay type: functional
A549 [4] = assay: Induction of apoptosis in human A549 cells assessed as live cells at 9 uM after 24 hrs by flow cytometry (reference value: 76.65%); assay type: functional
A549 [5] = assay: Induction of apoptosis in human A549 cells assessed as dead cells at 9 uM after 24 hrs by flow cytometry (reference value: 0%); assay type: functional
A549 [6] = assay: Cell cycle arrest in human A549 cells assessed as accumulation at G0/G1 phase at 9 uM after 24 hrs by flow cytometry (reference value: 66.5%); assay type: functional
A549 [7] = assay: Cell cycle arrest in human A549 cells assessed as accumulation at S phase at 9 uM after 24 hrs by flow cytometry (reference value: 18.3%); assay type: functional
A549 [8] = assay: Cell cycle arrest in human A549 cells assessed as accumulation at G2/M phase at 9 uM after 24 hrs by flow cytometry (reference value: 15.1%); assay type: functional
A549 [9] = assay: Antimigratory activity in human A549 cells incubated for 24 hrs by wound healing assay; assay type: functional, cell-based
A549 [10] = assay: Inhibition of cell invasion in human A549 cells at 1 to 3 uM after 24 hrs by Boyden's chamber transwell invasion assay; assay type: functional, cell-based
[11] = molecular target: 72 kDa type IV collagenase (Homo sapiens) (UniProt P08253); assay: Inhibition of MMP2 activity in human A549 cells at 3 to 9 uM after 48 hrs by gelatin zymography; assay type: cell-based
[12] = molecular target: Matrix metalloproteinase-9 (Homo sapiens) (UniProt P14780); assay: Inhibition of MMP9 activity in human A549 cells at 3 to 9 uM after 48 hrs by gelatin zymography; assay type: cell-based
A549 [13] = assay: Inhibition of MMP2 mRNA expression in human A549 cells at 3 uM after 48 hrs by RT-PCR analysis; assay type: functional, cell-based
A549 [14] = assay: Inhibition of MMP9 mRNA expression in human A549 cells at 3 uM after 48 hrs by RT-PCR analysis; assay type: functional, cell-based
[15] = molecular target: Mitogen-activated protein kinase; ERK1/ERK2 (Homo sapiens) (UniProt P27361+P28482); assay: Inhibition of ERK1/2 phosphorylation in human A549 cells after 24 hrs by Western blot analysis; assay type: cell-based
[16] = molecular target: MAP kinase p38 (Homo sapiens) (UniProt O15264+Q15759+Q16539+P53778); assay: Inhibition of p38 phosphorylation in human A549 cells at 3 to 9 uM after 24 hrs by Western blot analysis; assay type: cell-based
[17] = molecular target: c-Jun N-terminal kinase, JNK (Homo sapiens) (UniProt P45983+P53779+P45984); assay: Inhibition of JNK phosphorylation in human A549 cells at 3 to 9 uM after 24 hrs by Western blot analysis; assay type: cell-based
[18] = molecular target: Proto-oncogene tyrosine-protein kinase Src (Homo sapiens) (UniProt P12931); assay: Inhibition of c-Src phosphorylation in human A549 cells at 3 to 9 uM after 24 hrs by Western blot analysis; assay type: cell-based
[19] = molecular target: Focal adhesion kinase 1 (Homo sapiens) (UniProt Q05397); assay: Inhibition of FAK phosphorylation in human A549 cells at 3 to 9 uM after 24 hrs by Western blot analysis; assay type: cell-based
[20] = molecular target: T1, Catenin beta-1 (Homo sapiens) (UniProt P35222); assay: Inhibition of beta-catenin signalling in human A549 cells assessed as reduction in beta-catenin level at 3 to 9 uM after 24 hrs by Western blot analysis; assay type: cell-based
T1 sequence (whole entry): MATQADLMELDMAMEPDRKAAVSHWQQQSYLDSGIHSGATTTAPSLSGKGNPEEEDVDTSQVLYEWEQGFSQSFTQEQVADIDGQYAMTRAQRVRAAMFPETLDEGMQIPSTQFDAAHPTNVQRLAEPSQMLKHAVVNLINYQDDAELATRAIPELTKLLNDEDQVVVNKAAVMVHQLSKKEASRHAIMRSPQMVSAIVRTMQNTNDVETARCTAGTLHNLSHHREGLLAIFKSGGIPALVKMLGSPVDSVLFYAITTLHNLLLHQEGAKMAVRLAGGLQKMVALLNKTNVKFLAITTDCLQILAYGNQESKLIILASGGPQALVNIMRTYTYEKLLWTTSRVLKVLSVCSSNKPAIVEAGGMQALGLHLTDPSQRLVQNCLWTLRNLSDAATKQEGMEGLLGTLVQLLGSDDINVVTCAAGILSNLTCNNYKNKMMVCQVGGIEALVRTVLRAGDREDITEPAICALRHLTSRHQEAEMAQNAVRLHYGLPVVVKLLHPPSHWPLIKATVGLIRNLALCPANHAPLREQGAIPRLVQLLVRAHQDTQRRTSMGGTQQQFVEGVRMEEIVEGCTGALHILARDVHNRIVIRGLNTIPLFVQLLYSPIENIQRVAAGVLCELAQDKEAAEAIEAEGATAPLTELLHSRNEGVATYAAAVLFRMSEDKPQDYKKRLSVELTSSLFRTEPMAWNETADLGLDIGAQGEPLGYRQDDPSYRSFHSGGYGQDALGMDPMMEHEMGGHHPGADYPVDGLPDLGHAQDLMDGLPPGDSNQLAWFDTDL

NCI-H1299 [21] = assay: Antimigratory activity in human H1299 cells at 1 to 6 uM incubated for 24 hrs by wound healing assay; assay type: functional, cell-based
NCI-H1299 [22] = assay: Inhibition of cell invasion in human H1299 cells at 1 to 3 uM after 24 hrs by Boyden's chamber transwell invasion assay; assay type: functional, cell-based
[23] = molecular target: Matrix metalloproteinase-9 (Homo sapiens) (UniProt P14780); assay: Inhibition of MMP9 activity in human H1299 cells at 3 uM after 48 hrs by gelatin zymography; assay type: cell-based
[24] = molecular target: 72 kDa type IV collagenase (Homo sapiens) (UniProt P08253); assay: Inhibition of MMP2 activity in human H1299 cells at 3 uM after 48 hrs by gelatin zymography; assay type: cell-based
NCI-H1299 [25] = assay: Inhibition of MMP9 mRNA expression in human H1299 cells at 3 uM after 48 hrs by RT-PCR analysis; assay type: functional, cell-based
NCI-H1299 [26] = assay: Inhibition of MMP2 mRNA expression in human H1299 cells at 3 uM after 48 hrs by RT-PCR analysis; assay type: functional, cell-based

Chain of Matrix metalloproteinase-9 (Homo sapiens) (P14780 whole entry): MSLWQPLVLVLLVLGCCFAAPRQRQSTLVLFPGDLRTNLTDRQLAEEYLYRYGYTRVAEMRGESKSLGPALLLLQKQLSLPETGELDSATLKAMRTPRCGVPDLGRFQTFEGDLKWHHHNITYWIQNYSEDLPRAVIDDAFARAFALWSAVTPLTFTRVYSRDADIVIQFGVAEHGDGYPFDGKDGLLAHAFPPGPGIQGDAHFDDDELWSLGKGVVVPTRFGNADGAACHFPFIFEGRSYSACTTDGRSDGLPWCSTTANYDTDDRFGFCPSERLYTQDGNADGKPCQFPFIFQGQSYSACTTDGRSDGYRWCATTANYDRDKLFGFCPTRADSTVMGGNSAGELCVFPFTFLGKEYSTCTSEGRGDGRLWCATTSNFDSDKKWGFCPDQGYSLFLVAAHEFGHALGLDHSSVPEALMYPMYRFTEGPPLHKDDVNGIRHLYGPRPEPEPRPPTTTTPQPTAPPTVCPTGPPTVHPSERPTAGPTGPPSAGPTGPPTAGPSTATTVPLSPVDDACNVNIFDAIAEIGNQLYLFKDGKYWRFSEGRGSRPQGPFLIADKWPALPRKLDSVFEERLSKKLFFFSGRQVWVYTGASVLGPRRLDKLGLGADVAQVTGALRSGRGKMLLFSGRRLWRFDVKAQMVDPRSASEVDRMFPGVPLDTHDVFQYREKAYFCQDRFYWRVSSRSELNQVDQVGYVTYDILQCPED
Chain of 72 kDa type IV collagenase (Homo sapiens) (P08253 110-660 limits assumed): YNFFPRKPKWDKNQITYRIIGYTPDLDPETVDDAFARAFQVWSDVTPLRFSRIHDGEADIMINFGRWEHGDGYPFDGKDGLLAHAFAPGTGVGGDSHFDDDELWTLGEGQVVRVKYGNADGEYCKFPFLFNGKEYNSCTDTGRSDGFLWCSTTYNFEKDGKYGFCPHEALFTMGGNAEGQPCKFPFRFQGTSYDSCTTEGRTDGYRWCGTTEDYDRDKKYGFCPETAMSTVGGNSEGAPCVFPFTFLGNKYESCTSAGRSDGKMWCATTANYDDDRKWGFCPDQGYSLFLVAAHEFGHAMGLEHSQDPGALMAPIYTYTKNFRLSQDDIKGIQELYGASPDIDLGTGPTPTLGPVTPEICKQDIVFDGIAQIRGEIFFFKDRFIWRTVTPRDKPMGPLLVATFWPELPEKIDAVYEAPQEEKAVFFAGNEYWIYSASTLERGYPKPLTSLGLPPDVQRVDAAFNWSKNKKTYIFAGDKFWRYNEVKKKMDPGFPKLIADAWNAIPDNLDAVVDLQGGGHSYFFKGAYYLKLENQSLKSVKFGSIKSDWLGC
Chain of Focal adhesion kinase 1 (Homo sapiens) (Q05397 2-1052 limits assumed): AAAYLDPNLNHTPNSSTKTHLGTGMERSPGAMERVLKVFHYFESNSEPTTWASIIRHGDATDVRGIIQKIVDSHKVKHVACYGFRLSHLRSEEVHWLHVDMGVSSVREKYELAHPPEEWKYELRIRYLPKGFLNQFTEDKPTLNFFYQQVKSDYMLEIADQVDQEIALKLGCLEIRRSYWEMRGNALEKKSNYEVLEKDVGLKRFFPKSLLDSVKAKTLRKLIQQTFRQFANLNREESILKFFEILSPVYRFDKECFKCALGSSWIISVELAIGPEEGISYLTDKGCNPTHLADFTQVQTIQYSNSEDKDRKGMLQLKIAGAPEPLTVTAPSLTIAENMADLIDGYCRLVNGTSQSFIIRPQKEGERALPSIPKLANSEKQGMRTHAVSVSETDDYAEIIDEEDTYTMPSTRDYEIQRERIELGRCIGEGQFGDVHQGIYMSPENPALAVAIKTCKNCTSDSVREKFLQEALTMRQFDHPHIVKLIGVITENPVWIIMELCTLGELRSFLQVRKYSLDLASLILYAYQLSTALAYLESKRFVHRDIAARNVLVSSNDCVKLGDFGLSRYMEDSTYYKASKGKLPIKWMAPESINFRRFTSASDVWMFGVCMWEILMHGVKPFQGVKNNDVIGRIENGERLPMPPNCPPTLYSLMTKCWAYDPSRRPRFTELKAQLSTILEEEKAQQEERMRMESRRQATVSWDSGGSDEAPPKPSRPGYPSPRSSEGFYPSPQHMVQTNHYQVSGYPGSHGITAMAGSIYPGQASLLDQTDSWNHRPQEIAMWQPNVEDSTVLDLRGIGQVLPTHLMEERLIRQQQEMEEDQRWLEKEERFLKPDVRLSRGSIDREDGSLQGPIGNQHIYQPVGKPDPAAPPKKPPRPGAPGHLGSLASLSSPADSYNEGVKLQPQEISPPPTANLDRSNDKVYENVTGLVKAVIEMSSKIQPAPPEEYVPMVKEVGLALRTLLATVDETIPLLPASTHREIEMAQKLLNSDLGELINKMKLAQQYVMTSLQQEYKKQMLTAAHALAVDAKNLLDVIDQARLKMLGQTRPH
Chain of Proto-oncogene tyrosine-protein kinase Src (Homo sapiens) (P12931 2-536 limits assumed): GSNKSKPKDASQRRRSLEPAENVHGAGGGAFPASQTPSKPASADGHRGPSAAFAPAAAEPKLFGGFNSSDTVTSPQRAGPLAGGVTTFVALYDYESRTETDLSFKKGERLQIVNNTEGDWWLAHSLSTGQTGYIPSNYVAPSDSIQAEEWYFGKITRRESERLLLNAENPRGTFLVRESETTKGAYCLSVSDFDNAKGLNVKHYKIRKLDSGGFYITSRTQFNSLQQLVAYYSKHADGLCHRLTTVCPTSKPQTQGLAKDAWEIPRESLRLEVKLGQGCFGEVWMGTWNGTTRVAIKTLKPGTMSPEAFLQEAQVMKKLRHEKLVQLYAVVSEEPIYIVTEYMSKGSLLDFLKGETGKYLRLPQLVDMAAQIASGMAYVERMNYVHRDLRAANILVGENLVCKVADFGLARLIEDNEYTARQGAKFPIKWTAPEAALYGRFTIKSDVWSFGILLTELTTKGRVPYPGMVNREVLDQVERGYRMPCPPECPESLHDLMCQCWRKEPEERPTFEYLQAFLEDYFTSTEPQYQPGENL
Chain of Mitogen-activated protein kinase; ERK1/ERK2 (Homo sapiens) (P27361 whole entry, looked up): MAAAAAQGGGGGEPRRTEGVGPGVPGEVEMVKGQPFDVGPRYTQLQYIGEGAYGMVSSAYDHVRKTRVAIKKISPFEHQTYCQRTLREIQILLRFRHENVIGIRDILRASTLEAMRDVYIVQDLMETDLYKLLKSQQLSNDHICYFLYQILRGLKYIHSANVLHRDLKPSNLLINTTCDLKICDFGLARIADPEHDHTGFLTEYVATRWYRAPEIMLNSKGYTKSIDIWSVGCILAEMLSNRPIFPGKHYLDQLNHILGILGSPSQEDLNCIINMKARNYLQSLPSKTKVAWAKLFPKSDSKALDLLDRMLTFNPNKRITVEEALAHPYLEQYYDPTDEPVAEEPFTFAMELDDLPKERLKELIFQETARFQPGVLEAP
Chain of Mitogen-activated protein kinase; ERK1/ERK2 (Homo sapiens) (P28482 whole entry, looked up): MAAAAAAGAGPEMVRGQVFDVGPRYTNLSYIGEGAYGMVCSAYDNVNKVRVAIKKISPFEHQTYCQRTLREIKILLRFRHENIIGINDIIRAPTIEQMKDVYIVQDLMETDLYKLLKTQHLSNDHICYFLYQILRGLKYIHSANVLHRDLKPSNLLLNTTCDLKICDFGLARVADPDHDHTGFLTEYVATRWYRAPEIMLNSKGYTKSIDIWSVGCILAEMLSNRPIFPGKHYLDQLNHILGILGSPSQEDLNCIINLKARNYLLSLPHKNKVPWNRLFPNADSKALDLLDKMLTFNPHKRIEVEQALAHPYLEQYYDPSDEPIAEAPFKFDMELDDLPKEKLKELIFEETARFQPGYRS

SMILES: C[C@H]1CC[C@@]2(OC1)O[C@H]1C[C@H]3[C@@H]4CC[C@@H]5C[C@@H](O[C@@H]6O[C@H](CO)[C@@H](O)[C@H](O)[C@H]6O[C@@H]6O[C@H](CO)[C@@H](O)[C@H](O)[C@H]6O)CC[C@]5(C)[C@H]4CC[C@]3(C)[C@H]1[C@@H]2C
- Activity (A549 [1]): 29.25%
- Activity (A549 [2]): 16.6%
- Survival (A549 [3]): <50%
- Activity (A549 [4]): 54.15%
- Activity (A549 [5]): 0%
- Activity (A549 [6]): 74.8%
- Activity (A549 [7]): 11.2%
- Activity (A549 [8]): 14%
- inhibition (A549 [9]): Dose-dependent effect
- inhibition (A549 [10]): Active
- inhibition [11]: Active
- inhibition [12]: Active
- inhibition (A549 [13]): Active
- inhibition (A549 [14]): Active
- inhibition [15]: Dose-dependent effect
- inhibition [16]: inactive
- inhibition [17]: inactive
- inhibition [18]: Active
- inhibition [19]: Active
- inhibition [20]: Active
- inhibition (NCI-H1299 [21]): Active
- inhibition (NCI-H1299 [22]): Active
- inhibition [23]: Active
- inhibition [24]: Active
- inhibition (NCI-H1299 [25]): Active
- inhibition (NCI-H1299 [26]): Active
